Target: GTPase KRas [G12C,C51S,C80L,C118S] (Homo sapiens, UniProt P01116, C118S/C51S/C80L/G12C)
Experiment: AlphaScreen Binding Assay
Description: […]

Chain of GTPase KRas [G12C,C51S,C80L,C118S] (P01116 whole entry G12C/C51S/C80L/C118S, looked up): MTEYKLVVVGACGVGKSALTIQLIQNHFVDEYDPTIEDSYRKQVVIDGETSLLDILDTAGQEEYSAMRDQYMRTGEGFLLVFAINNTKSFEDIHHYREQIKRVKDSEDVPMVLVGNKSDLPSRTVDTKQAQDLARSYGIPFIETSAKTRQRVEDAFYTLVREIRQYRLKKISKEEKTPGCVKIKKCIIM

- IC50: 4 nM
Structure (SMILES): C[C@H](Oc1cc(-n2nccc2-c2ccncc2)nc(-c2noc3c2CCC[C@@]32CCCc3sc(N)c(C#N)c32)n1)[C@@H]1CCCN1C [US20240174690, Example II-131]

From BindingDB's records for patent US20240174690 (Boehringer Ingelheim International, 2024)
